Reference: ChEMBL document CHEMBL1201862, “PubChem BioAssay data set” (2004)
Where a name gives a salt, the structure may show the parent alone. One block for each compound: values may come before it. Calls of active or inactive are those of the source.

Assays:
[1] = target: T1, E3 ubiquitin-protein ligase XIAP (Homo sapiens, UniProt P98170); assay: Counter Screen using XIAP-Bir3 for Chemical Antagonists of Bir1/2 domains of IAP-family anti-apoptotic proteins. [Related pubchem assays (depositor defined):AID1018, AID1449, AID1514, AID1638, AID1749, AID1750, AID488957, AID488963]
T1 sequence (P98170 whole entry): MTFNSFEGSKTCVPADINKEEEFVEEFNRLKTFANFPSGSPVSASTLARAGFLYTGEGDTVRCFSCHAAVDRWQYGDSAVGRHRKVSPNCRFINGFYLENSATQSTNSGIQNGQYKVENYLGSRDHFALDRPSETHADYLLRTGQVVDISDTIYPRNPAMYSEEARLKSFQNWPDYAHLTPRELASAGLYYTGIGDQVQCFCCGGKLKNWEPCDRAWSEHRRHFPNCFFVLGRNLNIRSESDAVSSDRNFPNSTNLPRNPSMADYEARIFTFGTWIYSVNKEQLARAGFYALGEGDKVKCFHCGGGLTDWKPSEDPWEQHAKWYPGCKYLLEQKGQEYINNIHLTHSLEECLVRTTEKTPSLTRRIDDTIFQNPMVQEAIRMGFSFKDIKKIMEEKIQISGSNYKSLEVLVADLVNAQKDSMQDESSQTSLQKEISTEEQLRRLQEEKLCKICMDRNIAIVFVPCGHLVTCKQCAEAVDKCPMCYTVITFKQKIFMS

[2] = target: T1, E3 ubiquitin-protein ligase XIAP; assay: small molecules displacing peptide from XIAP – biochemical, IAP family, fluorescence polarization (AID 1018); format: functional
[3] = target: Eukaryotic translation initiation factor 4H (Homo sapiens, UniProt Q15056); assay: inhibitors of translation initiation factor eIF4H – SAR follow-up (AID 435011); format: functional
[4] = target: Polyadenylate-binding protein 1 (Homo sapiens, UniProt P11940); assay: PABP inhibition in translation initiation, SAR follow-up (AID 435018); format: functional
Polyadenylate-binding protein 1, sequence (P11940 whole entry): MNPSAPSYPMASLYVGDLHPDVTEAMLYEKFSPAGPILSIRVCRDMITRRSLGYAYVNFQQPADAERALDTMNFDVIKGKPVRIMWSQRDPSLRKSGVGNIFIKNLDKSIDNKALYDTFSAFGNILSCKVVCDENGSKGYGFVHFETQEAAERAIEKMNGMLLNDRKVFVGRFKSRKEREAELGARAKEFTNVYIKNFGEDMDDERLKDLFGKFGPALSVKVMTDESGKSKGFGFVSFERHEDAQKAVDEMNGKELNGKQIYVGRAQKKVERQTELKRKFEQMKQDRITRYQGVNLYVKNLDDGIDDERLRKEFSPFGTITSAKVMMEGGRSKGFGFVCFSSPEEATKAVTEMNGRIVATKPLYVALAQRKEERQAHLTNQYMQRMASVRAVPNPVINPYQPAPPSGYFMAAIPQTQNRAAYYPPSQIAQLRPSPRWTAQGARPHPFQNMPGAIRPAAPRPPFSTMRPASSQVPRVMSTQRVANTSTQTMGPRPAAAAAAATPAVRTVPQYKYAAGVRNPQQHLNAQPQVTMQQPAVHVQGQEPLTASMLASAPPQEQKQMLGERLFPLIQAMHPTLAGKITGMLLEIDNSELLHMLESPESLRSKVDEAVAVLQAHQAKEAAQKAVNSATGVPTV

[5] = target: T2, Cannabinoid receptor 2 (Homo sapiens, UniProt P34972); assay: SAR analysis of antagonists of the Cannabinoid Receptor 2 using an Image-Based Assay - Set 2. [Related pubchem assays (depositor defined):AID1961, AID1965]; format: functional
T2 sequence (P34972 whole entry): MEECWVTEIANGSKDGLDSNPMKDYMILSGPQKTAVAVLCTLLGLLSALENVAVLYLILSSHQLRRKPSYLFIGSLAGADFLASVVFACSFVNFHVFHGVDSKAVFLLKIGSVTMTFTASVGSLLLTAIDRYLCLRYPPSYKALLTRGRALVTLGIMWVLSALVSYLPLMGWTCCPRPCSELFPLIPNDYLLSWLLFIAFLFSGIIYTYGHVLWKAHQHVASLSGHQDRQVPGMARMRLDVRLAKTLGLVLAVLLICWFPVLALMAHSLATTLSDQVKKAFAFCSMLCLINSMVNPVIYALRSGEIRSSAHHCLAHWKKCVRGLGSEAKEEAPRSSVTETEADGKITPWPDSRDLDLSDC

[6] = target: G-protein coupled receptor 55 (Homo sapiens, UniProt Q9Y2T6); assay: SAR analysis of selective Agonists of GPR55 using an Image-Based Assay - Set 2. [Related pubchem assays (depositor defined):AID1961, AID1965]; format: functional
G-protein coupled receptor 55, sequence (Q9Y2T6 whole entry): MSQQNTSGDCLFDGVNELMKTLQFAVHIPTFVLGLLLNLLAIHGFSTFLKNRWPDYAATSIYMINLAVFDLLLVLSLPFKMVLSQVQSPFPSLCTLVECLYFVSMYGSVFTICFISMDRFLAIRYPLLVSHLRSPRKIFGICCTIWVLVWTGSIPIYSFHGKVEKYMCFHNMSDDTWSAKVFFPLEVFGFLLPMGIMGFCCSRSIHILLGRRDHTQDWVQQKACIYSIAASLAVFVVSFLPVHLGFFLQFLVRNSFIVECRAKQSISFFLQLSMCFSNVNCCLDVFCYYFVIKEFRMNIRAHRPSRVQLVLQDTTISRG

[7] = target: T2, Cannabinoid receptor 2; assay: SAR analysis of agonists of the Cannabinoid Receptor 2 using an Image-Based Assay - Set 2. [Related pubchem assays (depositor defined):AID1961, AID1965]; format: functional
[8] = target: T3, G-protein coupled receptor 35 (Homo sapiens, UniProt Q9HC97); assay: SAR analysis of Agonists of the GPR35 Receptor using an Image-Based Assay - Set 3. [Related pubchem assays (depositor defined):AID1961, AID1965]; format: functional
T3 sequence (Q9HC97 whole entry): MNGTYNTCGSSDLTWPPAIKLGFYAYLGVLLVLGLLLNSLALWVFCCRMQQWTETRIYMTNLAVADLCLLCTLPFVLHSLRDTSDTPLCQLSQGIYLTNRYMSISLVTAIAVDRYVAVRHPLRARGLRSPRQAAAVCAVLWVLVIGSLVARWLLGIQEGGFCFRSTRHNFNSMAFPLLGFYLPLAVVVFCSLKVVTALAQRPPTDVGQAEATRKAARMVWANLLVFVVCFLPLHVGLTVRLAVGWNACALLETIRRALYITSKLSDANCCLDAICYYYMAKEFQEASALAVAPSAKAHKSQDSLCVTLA

[9] = target: T4, Cannabinoid receptor 1 (Homo sapiens, UniProt P21554); assay: SAR analysis of antagonists of the Cannabinoid Receptor 1 using an Image-Based Assay - Set 3. [Related pubchem assays (depositor defined):AID1961, AID1965]; format: functional
T4 sequence (P21554 whole entry): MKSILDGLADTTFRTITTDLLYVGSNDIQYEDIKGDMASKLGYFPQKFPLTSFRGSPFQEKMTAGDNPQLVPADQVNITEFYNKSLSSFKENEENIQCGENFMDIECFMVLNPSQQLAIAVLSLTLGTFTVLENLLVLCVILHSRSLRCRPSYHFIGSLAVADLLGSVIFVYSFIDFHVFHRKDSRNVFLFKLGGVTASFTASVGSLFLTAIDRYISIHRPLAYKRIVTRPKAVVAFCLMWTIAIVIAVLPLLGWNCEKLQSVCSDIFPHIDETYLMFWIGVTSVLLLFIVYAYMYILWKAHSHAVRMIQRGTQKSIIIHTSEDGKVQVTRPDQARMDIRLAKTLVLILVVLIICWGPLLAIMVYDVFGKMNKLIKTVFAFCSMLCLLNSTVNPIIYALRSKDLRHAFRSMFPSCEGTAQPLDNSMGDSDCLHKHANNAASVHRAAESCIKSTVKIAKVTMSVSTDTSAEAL

[10] = target: T4, Cannabinoid receptor 1; assay: SAR analysis of agonists of the Cannabinoid Receptor 1 using an Image-Based Assay - Set 3. [Related pubchem assays (depositor defined):AID1961, AID1965]; format: functional
[11] = target: T3, G-protein coupled receptor 35; assay: SAR analysis of Antagonists of the GPR35 Receptor using an Image-Based Assay - Set 4. [Related pubchem assays (depositor defined):[…]]; format: functional
[12] = target: Voltage-dependent T-type calcium channel subunit alpha-1H (Homo sapiens, UniProt O95180); assay: human CACNA1H calcium influx blockade – cell-based, synthetic library set 2, HEK293 HH8, Fluo-4, SAR follow-up (AID 493023); format: functional
[13] = NIH/3T3 cell viability loss – mouse embryonic fibroblasts, dry powder, set 2, cytotoxicity control, dose response (AID 493247); format: functional, cell-based; details: Fibroblast
[14] = test system: Trypanosoma cruzi; assay: anti-trypanosomal activity in host cells – cell-based, plate reader, dry powder, set 3, dose response (AID 493197); format: functional
[15] = target: 5-hydroxytryptamine receptor 1A (Homo sapiens, UniProt P08908); format: functional
5-hydroxytryptamine receptor 1A, sequence (P08908 whole entry): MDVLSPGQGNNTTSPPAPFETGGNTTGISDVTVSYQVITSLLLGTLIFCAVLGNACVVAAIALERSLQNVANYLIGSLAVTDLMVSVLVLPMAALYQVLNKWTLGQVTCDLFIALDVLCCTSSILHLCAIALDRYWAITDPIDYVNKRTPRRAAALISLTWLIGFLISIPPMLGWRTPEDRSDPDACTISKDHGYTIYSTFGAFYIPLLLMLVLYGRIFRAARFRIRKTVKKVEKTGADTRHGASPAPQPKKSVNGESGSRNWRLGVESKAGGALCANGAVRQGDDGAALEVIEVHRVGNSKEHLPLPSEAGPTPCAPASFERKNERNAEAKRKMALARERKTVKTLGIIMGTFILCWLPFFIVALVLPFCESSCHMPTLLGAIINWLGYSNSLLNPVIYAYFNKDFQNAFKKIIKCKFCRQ

[16] = target: T5, Short transient receptor potential channel 4 (Mus musculus, UniProt Q9QUQ5); assay: potentiation of DAMGO-evoked TRPC4 calcium signal – cell-based, HEK293 TRPC4/mu-opioid, Fluo-4 calcium, EC20 DAMGO, dose response (AID 434941); format: functional
T5 sequence (Q9QUQ5 whole entry): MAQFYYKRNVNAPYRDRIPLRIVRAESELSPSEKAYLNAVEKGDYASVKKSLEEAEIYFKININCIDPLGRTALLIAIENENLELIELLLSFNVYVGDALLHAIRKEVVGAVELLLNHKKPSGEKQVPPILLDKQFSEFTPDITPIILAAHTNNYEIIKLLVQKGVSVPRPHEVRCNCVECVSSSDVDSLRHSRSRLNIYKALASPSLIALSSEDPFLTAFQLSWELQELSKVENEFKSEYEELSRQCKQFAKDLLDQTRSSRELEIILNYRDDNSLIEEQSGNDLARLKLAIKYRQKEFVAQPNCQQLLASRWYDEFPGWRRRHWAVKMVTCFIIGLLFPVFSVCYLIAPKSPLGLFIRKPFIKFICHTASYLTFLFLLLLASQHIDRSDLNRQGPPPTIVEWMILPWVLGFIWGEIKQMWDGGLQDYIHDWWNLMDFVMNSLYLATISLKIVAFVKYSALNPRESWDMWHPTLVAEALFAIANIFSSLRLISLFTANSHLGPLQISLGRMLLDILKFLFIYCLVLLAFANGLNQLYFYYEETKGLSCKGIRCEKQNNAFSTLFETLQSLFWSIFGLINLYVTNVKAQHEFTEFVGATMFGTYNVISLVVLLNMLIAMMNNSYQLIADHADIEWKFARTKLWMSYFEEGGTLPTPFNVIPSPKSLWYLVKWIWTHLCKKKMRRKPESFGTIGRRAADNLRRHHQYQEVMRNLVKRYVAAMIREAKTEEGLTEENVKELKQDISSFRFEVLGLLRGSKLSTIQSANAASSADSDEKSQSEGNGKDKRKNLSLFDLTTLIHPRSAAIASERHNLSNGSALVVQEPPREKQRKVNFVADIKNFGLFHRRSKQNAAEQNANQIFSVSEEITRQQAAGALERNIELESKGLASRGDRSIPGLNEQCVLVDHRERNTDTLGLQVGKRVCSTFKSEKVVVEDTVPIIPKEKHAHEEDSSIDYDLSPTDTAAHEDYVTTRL

- IC50 [1]: > 100 µM (inactive)
- IC50 [2]: > 100 µM (not active)
Compound: C=CCNC(=O)/C(C#N)=C/c1cn(-c2ccccc2)nc1-c1ccc(OC)c([N+](=O)[O-])c1

Compound: COc1ccc([N+](=O)[O-])cc1NC(=O)COC(=O)c1ccccc1C(=O)c1ccccc1
- IC50 [3]: > 100 µM (inactive)
- IC50 [4]: > 100 µM (inactive)

- IC50 [5]: > 32 µM (inactive)
- EC50 [6]: > 32 µM (inactive)
- EC50 [7]: > 32 µM (inactive)
- EC50 [8]: > 32 µM (inactive)
- IC50 [9]: > 32 µM (inactive)
- EC50 [10]: > 32 µM (inactive)
- IC50 [11]: > 32 µM (inactive)
Compound: COc1ccc(-c2csc(NC(=O)CSc3nnc4c(C)cc5cc6c(cc5n34)OCO6)n2)cc1

- EC50 [12]: 10 µM (active)
Compound: CC(C)(C)CCN1CCC[C@@H](NC(=O)c2ccc(Cl)cc2Cl)C1

Compound: O=C(Cc1cccnc1)N/N=C/c1ccc([N+](=O)[O-])o1
- AC50 [13]: 23.1 µM (active)
- AC50 [14]: 0.131 µM (active)

- EC50 [15]: 0.07 µM (active)
- EC50 [16]: 3.35 µM (active)
Compound: Cc1cc(C(C)(C)C)c(O)c(C)c1CC1=NCCN1 [OXYMETAZOLINE HYDROCHLORIDE]
